# Source: US12011441B2, “Pimobendan for the reduction of heart size and/or the delay of onset of clinical symptoms in patients with asymptomatic heart failure due to mitral valve disease” (Boehringer Ingelheim Vetmedica GmbH, priority 2016, dated 2024)
# System: dogs with MMVD and echocardiographic and radiographic evidence of cardiomegaly
# Excerpt: Vertebral heart sum, another measure of heart size, was obtained at regular intervals—every eight months—from those animals that remained in the study. There are various ways in which this can be compared between groups. The most useful way to summarise and compare the average vertebral heart score in each group for the duration of the study is to generate an “area under the curve” value that represents a single summary statistic for each dog from which more than two measurements were obtained [Matthews J N et al., BMJ 1990, 300(6719): 230-235]. This method has been used previously in veterinary studies [Häggström J et al., J Vet Intern Med 2013, 27(6): 1441-1451].
structure (smiles),measurement,setting,value
"COc1ccc(-c2nc3ccc(C4=NNC(=O)CC4C)cc3[nH]2)cc1 (centres unmarked) [pimobendan, 4,5-dihydro-6-[2-(4-methoxyphenyl)-1H-benzimidazol-5-yl]-5-methyl-3(2H)-pyridazinone]",VHS Median,"average vertebral heart score over the duration of the study, placebo 11.90, P = 0.0009",11.54
same,difference in median vertebral heart score vs placebo,"averaged over the entire duration of the study (area under the curve), dogs remaining in the study",approximately 0.35 vertebrae
same,rate or type of potential adverse events observed,"dog, in vivo",no difference between groups
same,safety and tolerability,"dog, in vivo",safe and well tolerated
same,heart size compared to the placebo group,"measured over the first 35 days of the study, P<0.0001",reduction in heart size
